{"source": "patent US11945825B2", "about": "“Compositions and methods for regulating glucose homeostasis and insulin action” (UNIVERSITY OF VIRGINIA PATENT FOUNDATION, priority 2012, dated 2024)", "key": {"[1]": {"tested_on": "L6 cells"}, "[2]": {"tested_on": "L6 cells", "settings": "20 μM, 20 min"}, "[3]": {"tested_on": "L6 myotubes", "settings": "5 min treatment"}, "[4]": {"tested_on": "AMP-activated protein kinase", "settings": "L6 cells, 40 min"}, "[5]": {"tested_on": "L6 myoblasts", "settings": "1 μM uncoupler, 1 μM oligomycin"}, "[6]": {"tested_on": "L6 myoblasts", "experiment": "Oxygen consumption rate dose response (Seahorse XF24)", "type": "cell-based, rat"}, "[7]": {"tested_on": "isolated mouse liver mitochondria", "settings": "5 μM"}, "[8]": {"settings": "mouse, in vivo; cited from earlier work"}, "[9]": {"settings": "patients consuming ˜300 mg/d, over several months, no change in food intake; cited from earlier work"}}, "data": [{"compound": "N#CC(C#N)=NNc1ccc(OC(F)(F)F)cc1", "note": "[FCCP, carbonyl cyanide p-trifluoromethoxyphenylhydrazone]", "values": [{"measurement": "plasma membrane potential", "setting": "[1]; current clamp, resting membrane potential, 10 μM", "value": "reversible and repeatable plasma membrane depolarization"}, {"measurement": "current under voltage clamp", "setting": "[1]; holding potential −70 mV, 1 μM and 10 μM", "value": "induced an inward current"}, {"measurement": "plasma membrane conductance", "setting": "[1]; voltage clamp, −130 mV to −60 mV", "value": "increase in conductance"}, {"measurement": "cellular ATP levels", "setting": "[2]", "value": "loss of cellular ATP"}, {"measurement": "intracellular acidification relative to BAM15", "setting": "[3]", "value": 2, "unit": "fold"}, {"measurement": "AMPK activation", "setting": "[4]", "value": "activation of AMP-activated protein kinase"}, {"measurement": "respiration in the presence of oligomycin", "setting": "[5]", "value": "increase oxygen consumption in the presence of oligomycin"}, {"measurement": "shape of oxygen consumption dose response curve", "setting": "[6]", "value": "inverted bell shaped curve of effectiveness"}, {"measurement": "electron donation to the ETC", "setting": "[7]; after 2 μM rotenone", "value": "do not donate electrons to the ETC downstream of complex I"}, {"measurement": "effect on complex II (succinate-stimulated respiration)", "setting": "[7]; succinate added at 20 min", "value": "do not affect complex II"}]}, {"compound": "O=[N+]([O-])c1ccc(O)c([N+](=O)[O-])c1", "note": "[DNP, 2,4-dinitrophenol]", "values": [{"measurement": "metabolic effects in mice", "setting": "[8]", "value": "improved serological glucose, triglyceride, and insulin levels, as well as decreased oxidative damage, reduced body weight, and increased longevity"}, {"measurement": "average weight loss", "setting": "[9]", "value": 1.5, "unit": "pounds per week"}]}]}
